Earlier results, collected in patent publication US20250228877A1, “MANAGEMENT OF SKIN AILMENTS” (priority 2021, published 2025).

Legend:
[1] = 1-4% IP-6 in drinking water; measured by gadolinium uptake
[2] = test system: human umbilical vein endothelial cell (HUVEC) tube formation; details: after 24 hours; reconstituted extracellular matrix
[3] = 7 days following treatment

O=P(O)(O)O[C@H]1[C@H](OP(=O)(O)O)[C@@H](OP(=O)(O)O)[C@H](OP(=O)(O)O)[C@@H](OP(=O)(O)O)[C@H]1OP(=O)(O)O [IP-6, myo-inositol hexakisphosphate]
angiogenesis evaluated by micro-vessel density (MVD) [1]: inhibited angiogenesis
number of capillaries [2]: reduction
vascularity (number of blood vessel formation) [3]: inhibited vascularity
